Laboratory results from US20260027116A1, “Methods of Treating Chronic Graft-Versus-Host Disease Following Allogeneic Hematopoietic Stem Cell Transplantation” (Kadmon Corporation, LLC, priority 2022, published 2026).

Tested on: lung function
Experiment: Example 1: percent predicted TLC change from baseline
Format: in vivo, human
Settings: mean (SD)
Procedure: Change From Baseline in Percent Predicted Total Lung Capacity (TLC) at Each Specified Time Points. TLC is the volume of air in the lungs upon the maximum effort of inspiration. Baseline value was defined as valid and last non-missing value obtained within 28 days prior to participant receiving first study medication. EOT visit was performed within 3 days after the participant's last dose of study drug. […] Analysis was performed on mITT population. Here, ‘number analyzed’=participants with available data for each specified category. Here, ‘0’ in the number analyzed field signifies that none of the participants were available for the analysis at the specified time points.

## CC(C)NC(=O)COc1cccc(-c2nc(Nc3ccc4[nH]ncc4c3)c3ccccc3n2)c1 [Belumosudil, 2-{3-[4-(1H-indazol-5-ylamino)-2-quinazolinyl]phenoxy}-N-(propan-2-yl) acetamide]
Cohort 2: 200 mg BID, Cycle 12, Day 1
  Change From Baseline in Percent Predicted Total Lung Capacity (TLC): 0.0 (—) Percent Predicted TLC
Cohort 2: 200 mg BID, Cycle 13, Day 1
  Change From Baseline in Percent Predicted Total Lung Capacity (TLC): −10.3 (18.7) Percent Predicted TLC
Cohort 2: 200 mg BID, Cycle 14, Day 1
  Change From Baseline in Percent Predicted Total Lung Capacity (TLC): −7.0 (—) Percent Predicted TLC
Cohort 2: 200 mg BID, Cycle 15, Day 1
  Change From Baseline in Percent Predicted Total Lung Capacity (TLC): −1.0 (5.6) Percent Predicted TLC
Cohort 2: 200 mg BID, Cycle 16, Day 1
  Change From Baseline in Percent Predicted Total Lung Capacity (TLC): −14.0 (12.7) Percent Predicted TLC
Cohort 2: 200 mg BID, Cycle 17, Day 1
  Change From Baseline in Percent Predicted Total Lung Capacity (TLC): −17.0 (11.4) Percent Predicted TLC
Cohort 2: 200 mg BID, Cycle 18, Day 1
  Change From Baseline in Percent Predicted Total Lung Capacity (TLC): −16.0 (8.5) Percent Predicted TLC
Cohort 2: 200 mg BID, Cycle 19, Day 1
  Change From Baseline in Percent Predicted Total Lung Capacity (TLC): −7.7 (10.5) Percent Predicted TLC
Cohort 2: 200 mg BID, Cycle 20, Day 1
  Change From Baseline in Percent Predicted Total Lung Capacity (TLC): −9.5 (16.3) Percent Predicted TLC
Cohort 2: 200 mg BID, Cycle 21, Day 1
  Change From Baseline in Percent Predicted Total Lung Capacity (TLC): −18.0 (—) Percent Predicted TLC
Cohort 2: 200 mg BID, Cycle 22, Day 1
  Change From Baseline in Percent Predicted Total Lung Capacity (TLC): −18.5 (6.4) Percent Predicted TLC
Cohort 2: 200 mg BID, Cycle 23, Day 1
  Change From Baseline in Percent Predicted Total Lung Capacity (TLC): −21.0 (19.8) Percent Predicted TLC
Cohort 2: 200 mg BID, Cycle 24, Day 1
  Change From Baseline in Percent Predicted Total Lung Capacity (TLC): −15.0 (—) Percent Predicted TLC
Cohort 2: 200 mg BID, Cycle 25, Day 1
  Change From Baseline in Percent Predicted Total Lung Capacity (TLC): −19.5 (13.4) Percent Predicted TLC
Cohort 2: 200 mg BID, Cycle 27, Day 1
  Change From Baseline in Percent Predicted Total Lung Capacity (TLC): −24.0 (12.7) Percent Predicted TLC
Cohort 2: 200 mg BID, Cycle 29, Day 1
  Change From Baseline in Percent Predicted Total Lung Capacity (TLC): −27.5 (21.9) Percent Predicted TLC
Cohort 2: 200 mg BID, Cycle 31, Day 1
  Change From Baseline in Percent Predicted Total Lung Capacity (TLC): −36.0 (—) Percent Predicted TLC
Cohort 2: 200 mg BID, Cycle 33, Day 1
  Change From Baseline in Percent Predicted Total Lung Capacity (TLC): −39.0 (—) Percent Predicted TLC
Cohort 2: 200 mg BID, Cycle 35, Day 1
  Change From Baseline in Percent Predicted Total Lung Capacity (TLC): −23.5 (16.3) Percent Predicted TLC
Cohort 2: 200 mg BID, EOT
  Change From Baseline in Percent Predicted Total Lung Capacity (TLC): −2.4 (15.0) Percent Predicted TLC
Cohort 3: 400 mg QD, Cycle 2, Day 1
  Change From Baseline in Percent Predicted Total Lung Capacity (TLC): −9.0 (13.4) Percent Predicted TLC
Cohort 3: 400 mg QD, Cycle 3, Day 1
  Change From Baseline in Percent Predicted Total Lung Capacity (TLC): −0.6 (14.8) Percent Predicted TLC
Cohort 3: 400 mg QD, Cycle 4, Day 1
  Change From Baseline in Percent Predicted Total Lung Capacity (TLC): 3.3 (14.0) Percent Predicted TLC
Cohort 3: 400 mg QD, Cycle 5, Day 1
  Change From Baseline in Percent Predicted Total Lung Capacity (TLC): −1.7 (11.2) Percent Predicted TLC
Cohort 3: 400 mg QD, Cycle 6, Day 1
  Change From Baseline in Percent Predicted Total Lung Capacity (TLC): −4.4 (11.6) Percent Predicted TLC
Cohort 3: 400 mg QD, Cycle 7, Day 1
  Change From Baseline in Percent Predicted Total Lung Capacity (TLC): −2.6 (13.4) Percent Predicted TLC
Cohort 3: 400 mg QD, Cycle 8, Day 1
  Change From Baseline in Percent Predicted Total Lung Capacity (TLC): −0.2 (12.9) Percent Predicted TLC
Cohort 3: 400 mg QD, Cycle 9, Day 1
  Change From Baseline in Percent Predicted Total Lung Capacity (TLC): −0.9 (15.8) Percent Predicted TLC
Cohort 3: 400 mg QD, Cycle 10, Day 1
  Change From Baseline in Percent Predicted Total Lung Capacity (TLC): 3.6 (14.7) Percent Predicted TLC
Cohort 3: 400 mg QD, Cycle 11, Day 1
  Change From Baseline in Percent Predicted Total Lung Capacity (TLC): −3.0 (19.7) Percent Predicted TLC
Cohort 3: 400 mg QD, Cycle 12, Day 1
  Change From Baseline in Percent Predicted Total Lung Capacity (TLC): −8.0 (14.2) Percent Predicted TLC
Cohort 3: 400 mg QD, Cycle 13, Day 1
  Change From Baseline in Percent Predicted Total Lung Capacity (TLC): −3.3 (17.6) Percent Predicted TLC
Cohort 3: 400 mg QD, Cycle 14, Day 1
  Change From Baseline in Percent Predicted Total Lung Capacity (TLC): −5.8 (16.5) Percent Predicted TLC
Cohort 3: 400 mg QD, Cycle 15, Day 1
  Change From Baseline in Percent Predicted Total Lung Capacity (TLC): −7.0 (12.0) Percent Predicted TLC
Cohort 3: 400 mg QD, Cycle 16, Day 1
  Change From Baseline in Percent Predicted Total Lung Capacity (TLC): −15.5 (9.5) Percent Predicted TLC
Cohort 3: 400 mg QD, Cycle 17, Day 1
  Change From Baseline in Percent Predicted Total Lung Capacity (TLC): −18.1 (15.6) Percent Predicted TLC
Cohort 3: 400 mg QD, Cycle 18, Day 1
  Change From Baseline in Percent Predicted Total Lung Capacity (TLC): 0.0 (13.9) Percent Predicted TLC
Cohort 3: 400 mg QD, Cycle 19, Day 1
  Change From Baseline in Percent Predicted Total Lung Capacity (TLC): −7.0 (5.4) Percent Predicted TLC
Cohort 3: 400 mg QD, Cycle 20, Day 1
  Change From Baseline in Percent Predicted Total Lung Capacity (TLC): −9.3 (15.4) Percent Predicted TLC
Cohort 3: 400 mg QD, Cycle 21, Day 1
  Change From Baseline in Percent Predicted Total Lung Capacity (TLC): −14.4 (24.0) Percent Predicted TLC
Cohort 3: 400 mg QD, Cycle 22, Day 1
  Change From Baseline in Percent Predicted Total Lung Capacity (TLC): −21.0 (14.1) Percent Predicted TLC
Cohort 3: 400 mg QD, Cycle 23, Day 1
  Change From Baseline in Percent Predicted Total Lung Capacity (TLC): −2.8 (18.8) Percent Predicted TLC
Cohort 3: 400 mg QD, Cycle 24, Day 1
  Change From Baseline in Percent Predicted Total Lung Capacity (TLC): −34.0 (—) Percent Predicted TLC
Cohort 3: 400 mg QD, Cycle 25, Day 1
  Change From Baseline in Percent Predicted Total Lung Capacity (TLC): −6.3 (24.1) Percent Predicted TLC
Cohort 3: 400 mg QD, Cycle 27, Day 1
  Change From Baseline in Percent Predicted Total Lung Capacity (TLC): −14.5 (24.7) Percent Predicted TLC
Cohort 3: 400 mg QD, Cycle 29, Day 1
  Change From Baseline in Percent Predicted Total Lung Capacity (TLC): 12.0 (14.1) Percent Predicted TLC
Cohort 3: 400 mg QD, Cycle 31, Day 1
  Change From Baseline in Percent Predicted Total Lung Capacity (TLC): 17.0 (—) Percent Predicted TLC
Cohort 3: 400 mg QD, Cycle 35, Day 1
  Change From Baseline in Percent Predicted Total Lung Capacity (TLC): 13.0 (—) Percent Predicted TLC
Cohort 3: 400 mg QD, Cycle 36, Day 1
  Change From Baseline in Percent Predicted Total Lung Capacity (TLC): −6.0 (—) Percent Predicted TLC
Cohort 3: 400 mg QD, Cycle 49, Day 1
  Change From Baseline in Percent Predicted Total Lung Capacity (TLC): 1.0 (—) Percent Predicted TLC
Cohort 3: 400 mg QD, EOT
  Change From Baseline in Percent Predicted Total Lung Capacity (TLC): −12.6 (20.1) Percent Predicted TLC
